Results reported in patent US20170007619A1, “High Dose Dehydroepiandrosterone as Anticancer Treatment With Multi-faceted Reconstitution of Otherwise Depleted Metabolites” (priority 2015, published 2017).
Entries after “also recorded” stand apart in the source; their conditions may differ.

Columns and labels:
[1] = Side effects of HD DHEA and their prevention by reconstitution; type: in vivo, dogs; conditions: for DHEA-induced ocular (ophthalmic) inflammation on reconstitution: dogs administered DHEA, IPA (and BH4) added; for susceptibility to infections under DHEA with concurrent reconstitution: dogs and cats; for susceptibility to infections under DHEA with concurrent reconstitution / fluid retention symptoms under DHEA with concurrent reconstitution: concurrent BH4, potassium nitrate and IPA; for fluid retention symptoms under DHEA with concurrent reconstitution: dogs
From the text: Table 1. Physical symptoms associated with HD DHEA-induced Nitric Oxide (NO) depletion.

[2] = Depletion and reconstitution of metabolites in dogs treated with HD DHEA; type: in vivo; conditions: for ubiquinone levels with supplementation in DHEA-treated animals: supplementation with ubiquinone and tocotrienols
Description: FIG. 4. […] For IPA quantitation, preliminary in vitro studies were performed in which DHEA-treated and control HT-29SF cells were exposed to [^3H]-mevalonic acid (saponified; data not shown). […] For ease of presentation, pretreatment values for all 3 determinations (BH4, IPA and ubiquinone) were given a value of 1, with treatment values presented as their respective fraction thereof. Male and female dogs had blood or other specimens drawn pretreatment, and then following 90 days of 10 mg/kg DHEA±reconstitution protocol.
FIG. 6. […] Fifteen ml blood samples were drawn and the buffy coat was isolated by low speed centrifugation in the standard manner. […] AMP, ADP and ATP were quantitated. […] For ease of presentation, pretreatment values are presented with a value of 1, with treatment values presented as their respective fraction thereof.
FIG. 8. […] Ten mg of intestinal mucosa was analyzed for each animal. […] Results are presented as percentage of values in pretreatment dogs, mean±SEM.
FIG. 10. […] 24 hour urine was collected from neutered male and female animals in amber glass containment vessels. To 100 ml of urine was added 1 ml of concentrated HCL as preservative. […] These same dogs were then administered DHEA (10 mg/kg)±the reconstitution regimen which included the monoamine mix described above. This treatment continued for 90 days, at which time further urine specimens were collected and assayed for norepinephrine. The data are reported as the mean±SEM.
FIG. 11. […] Before treatment, 10-15 ml blood samples were taken from male and female neutered dogs, and plasma was collected by low speed centrifugation by the standard method.

[3] = molecular target: Glucose-6-phosphate dehydrogenase (G6PD) (Homo sapiens, UniProt P11413); conditions: cited from earlier work
[4] = system: 1,2-dimethylhydrazine-induced colonic tumors, which metastasize to the liver; assay: Carcinogen (1,2-dimethylhydrazine)-induced tumors in dogs ± HD DHEA (Table 2); type: in vivo
From the text: Table 2. Decreased tumor volume and increased longevity in dogs administered HD DHEA to treat […] tumors. […] Organotropic carcinogens produce tumors in specific organs. Dimethylhydrazine produces exclusively colonic tumors, which metastasize to the liver. In this series of experiments 13 dogs were exposed to DMH only, and 13 were exposed to DMH followed by treatment with HD DHEA.

[5] = system: human colonic carcinoma HT29SF cells; assay: Flow cytometric cell cycle analysis of HT-29SF cells exposed to DHEA; type: cell-based
spontaneous cancers = assay: HD DHEA in cancer stricken dogs (spontaneous cancers, Table 3); type: in vivo
From the text: In preliminary experiments we exposed human colonic carcinoma HT29SF cells to various doses of DHEA and assessed the effects of such treatment upon cell cycle kinetics.
Table 3. Decreased tumor volume, increased longevity (compared to historical controls), and improved quality of life in dogs with spontaneous cancers.

statin-treated cells = conditions: cited from earlier work
[6] = DMH followed by HD DHEA, Student's t test
[7] = tissues of animals administered HD DHEA
[8] = tissues of dogs administered HD DHEA

Chain of Glucose-6-phosphate dehydrogenase (G6PD) (P11413 whole entry, species assumed): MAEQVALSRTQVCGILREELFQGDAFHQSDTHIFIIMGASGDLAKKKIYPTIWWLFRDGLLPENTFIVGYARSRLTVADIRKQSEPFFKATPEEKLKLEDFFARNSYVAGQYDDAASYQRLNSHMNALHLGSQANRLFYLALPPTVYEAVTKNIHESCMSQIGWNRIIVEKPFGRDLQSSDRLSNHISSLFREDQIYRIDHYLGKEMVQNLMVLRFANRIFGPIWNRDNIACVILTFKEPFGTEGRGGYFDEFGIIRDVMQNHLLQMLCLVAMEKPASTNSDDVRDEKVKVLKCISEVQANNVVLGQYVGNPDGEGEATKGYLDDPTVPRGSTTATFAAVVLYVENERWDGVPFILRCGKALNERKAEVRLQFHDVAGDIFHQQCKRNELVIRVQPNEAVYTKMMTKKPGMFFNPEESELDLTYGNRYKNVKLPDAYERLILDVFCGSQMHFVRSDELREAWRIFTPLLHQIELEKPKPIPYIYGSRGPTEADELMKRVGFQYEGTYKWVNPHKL

Compound: CC(O)C(O)C1CNc2nc(N)[nH]c(=O)c2N1 (stereo not shown) [BH4, tetrahydrobiotperin]
- DHEA-induced ocular (ophthalmic) inflammation on reconstitution [1]: prevents
- susceptibility to infections under DHEA with concurrent reconstitution [1]: eliminated
- fluid retention symptoms under DHEA with concurrent reconstitution [1]: eliminated
- dopamine, norepinephrine and epinephrine levels on replenishment of BH4 ([2]; DHEA-treated animals): restoring normal or near normal

Compound: C[C@]12CC[C@H](O)CC1=CC[C@@H]1[C@@H]2CC[C@]2(C)C(=O)CC[C@@H]12 [DHEA, Dehydroepiandrosterone]
- G6PD inhibition [3]: potent uncompetitive inhibitor of G6PD
- side effects observed with HD DHEA ([1]; HD DHEA without reconstitution): motor incoordination sometimes occurs; also recorded: susceptibility to infections, particularly in the ear and eye; also recorded: induction of vasoconstriction; also recorded: Fluid retention; also recorded: auto-inflammatory-like disorder
- number of tumors induced, control vs HD DHEA-treated dogs ([4]; 13 dogs DMH only vs 13 DMH followed by HD DHEA): not statistically different
- number and total weight of hepatic metastases, control vs HD DHEA-treated dogs [4, 6]: statistically significant
- weight of the individual colonic tumors, control vs HD DHEA-treated dogs [4, 6]: statistically significant
- effect on cell cycle kinetics ([5]; HT29SF cells exposed to various doses of DHEA): arrested cells in the G1 phase of the cell cycle
- longevity (spontaneous cancers; HD DHEA): significant improvements in longevity
- tumor volume (spontaneous cancers; HD DHEA): decreases in tumor volume
- quality of life (spontaneous cancers; HD DHEA supplemented with specific metabolites): increases in quality of life
- NO level during HD DHEA ([2]; animals administered HD DHEA): depleted
- total pools of isopentenylated tRNA ([2]; buffy coat lymphocytes of dogs treated with DHEA, HPLC): depleted
- ubiquinone levels, continuous DHEA treatment ([2]; continuous treatment at doses capable of inducing HD DHEA): decline; also recorded: depleted
- one carbon pool products (e.g., AMP, ADP, ATP; purines, pyrimidines, S-adenosylmethionine) during HD DHEA ([2]; dogs administered HD DHEA): profoundly depleted
- ubiquinone levels, short term DHEA exposure ([2]; over the short term): increased
- BH4 level during HD DHEA [2, 7]: depleted
- IPA level during HD DHEA [2, 7]: becomes depleted
- important monoamines during HD DHEA [2, 8]: depleted
- phenylalanine levels during HD DHEA [2, 8]: increased

Compound: CC(C)=CCNc1ncnc2c1ncn2[C@@H]1O[C@H](CO)[C@@H](O)[C@H]1O [IPA, N6-Δ2-isopentenyladenosine]
- DHEA-induced ocular (ophthalmic) inflammation on reconstitution [1]: prevents; also recorded: completely prevent
- susceptibility to infections under DHEA with concurrent reconstitution [1]: eliminated
- fluid retention symptoms under DHEA with concurrent reconstitution [1]: eliminated

Compound: CC(C)=CCNc1ncnc2nc[nH]c12 [Isopentenyladenine]
- activity in restoring DNA synthesis relative to mevalonate (statin-treated cells): approximately 100 fold

Compound: N[C@@H](Cc1ccc(O)c(O)c1)C(=O)O [L-DOPA]
- emesis ([1]; dog, in vivo): can lead to emesis in some dogs

Compound: C[C@@](O)(CCO)CC(=O)O [mevalonic acid]
- reversal of DHEA-induced cell cycle arrest ([5]; addition of mevalonic acid and nucleosides to DHEA-treated HT29SF cells): partly or completely reversed

Compound: O=[N+]([O-])[O-].[K+] [potassium nitrate]
- symptoms associated with NO depletion ([1]; animals undergoing HD DHEA plus potassium nitrate): eliminating
- susceptibility to infections under DHEA with concurrent reconstitution [1]: eliminated
- fluid retention symptoms under DHEA with concurrent reconstitution [1]: eliminated
- replenishment of NO in animals undergoing HD DHEA ([2]; potassium nitrate as NO donor): can replenish NO

Compound: C[C@]12C=CC(=O)C=C1CC[C@@H]1[C@@H]2C(=O)C[C@@]2(C)[C@H]1CC[C@]2(O)C(=O)CO [prednisone]
- G6PD inhibition [3]: does not inhibit G6PD

Compound: COC1=C(OC)C(=O)C(C/C=C(\C)CC/C=C(\C)CC/C=C(\C)CC/C=C(\C)CC/C=C(\C)CC/C=C(\C)CC/C=C(\C)CC/C=C(\C)CC/C=C(\C)CCC=C(C)C)=C(C)C1=O [ubiquinone]
- combination of ubiquinone and tocotrienols vs ubiquinone alone, retaining ubiquinone levels ([2]; DHEA-treated animals): more effective
- ubiquinone levels with supplementation in DHEA-treated animals [2]: maintains normal or near normal ubiquinone levels

Compound: tocotrienols
- combination of ubiquinone and tocotrienols vs ubiquinone alone, retaining ubiquinone levels ([2]; DHEA-treated animals): more effective
- ubiquinone levels with supplementation in DHEA-treated animals [2]: maintains normal or near normal ubiquinone levels
